Experimental data published in patent US6906061B2, “Pharmaceutical agent containing Rho kinase inhibitor” (Mitsubishi Pharma Corporation, priority 1996, dated 2005).

How the values were obtained:
[1] = system: CEM cells (human T cell type established cell); assay: Inhibition of VLA integrin activation (phorbol ester-induced adhesion of CEM cells to fibronectin); type: cell-based; details: CCRF-CEM, concentration 100 μM, PMA-induced adhesion, read-out: Adhesion induction inhibition (%)
Protocol: Inhibition of VLA (Very Late Antigen) Integrin Activation
As the index of the activation by VLA integrin, phorbol ester-induced adhesion of CEM cells (human T cell type established cell) to fibronectin, which is a ligand of VIA integrin, was measured. The inhibitory action on the induced adhesion by the test compound was determined by the following method.
CEM cells were washed with RPMI1640 medium containing 0.5% bovine serum albumin (BSA), 10 mM HEPES, 2 mM L-glutamin, 1 mM sodium pyruvate, 60 μg/ml kanamycin sulfate and 1.5 mg/ml sodium hydrogencarbonate (hereinafter this medium is referred to as culture solution) and suspended in this medium for use in the following experiment. To each well of a 96 well plate coated with human fibronectin were added CEM cells (5×10^4) and the test compound dissolved in the culture solution (final concentration 1-100 μM) to the amount of 100 μl, and the plate was stood at 37° C. for 1 hour. Then, PMA (phorbol 12-myristate 13-acetate, TPA; final concentration 10 ng/ml) and the test compound were added to the amount of 200 μl, and the plate was stood at 37° C. for 30 minutes. Each well was washed twice with the culture solution (200 μL) at 37° C., and the LDH (lactate dehydrogenase) activity of the cells adhered to the plate was determined, whereby the amount of the adhered cell was measured. Based on the results obtained by the above-mentioned method, the inhibitory action of the test compound on the induced adhesion was calculated by the following formula The results are shown in Table 6. Inhibition (%) of adhesion induction=(a−b)/(a−c)×100 • a=number of cells adhered with the addition of PMA • b=number of cells adhered with the addition of test compound and PMA • c=number of cells adhered without stimulation

[2] = system: hind limb skin blood flow; assay: Peripheral blood flow increasing action in STZ-induced diabetic rats; type: in vivo, rat; details: intravenous, 1 μg
In short: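 Male SD rats (200-300 g) made diabetic with STZ 65 mg/kg i.v.; one month later, under pentobarbital anesthesia, compound given i.v. via carotid catheter. Hind limb skin blood flow measured by laser flowmeter, expressed as percent increase over pre-dose flow.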

[3] = biological target: T1, Human Platelet Rho Kinase (p160ROCK) (Homo sapiens, UniProt Q13464); assay: Rho kinase inhibitory action (inhibition of human platelet Rho kinase (p160ROCK)); type: biochemical; details: histone substrate, 1 μM ATP
T1 construct: Human platelet p160ROCK was isolated by the method of Ishizaki et al; from tissue; host or cells: human platelets
Protocol: Rho Kinase Inhibitory Action (Inhibition of Human Platelet Rho Kinase (p160ROCK))
(§1) Kinase assay included the following steps. That is, a reaction mixture (total amount 30 μl) containing 50 mM Hepes-NaOH (pH=7.4), 10 mM MgCl2, 5 mM MnCl2, 2 mM dithiothreitol, 0.02% Brij35, 1 μM [γ-^32P]ATP, 330 μg/ml histone, p160ROCK (2 μl) isolated by the method of Ishizaki et al. and the test compound was incubated at 30° C. for 20 minutes. The solution was mixed with a 1/3 amount of 4× Laemmli sample buffer, boiled for 5 minutes and applied to SDS-PAGE. The gel was stained with Coomassie Brilliant Blue and dried. The band of histone was cut out and assayed for radioactivity.

[4] = biological target: T2, p160ROCK (Homo sapiens, UniProt Q13464); assay: Inhibition of p160ROCK (myc-tagged, expressed in COS cells); type: biochemical; details: enzyme expressed in COS cells
T2 construct: made in house; host or cells: COS cells (transient transfection, immunoprecipitated with 9E10 anti-myc antibody on protein G-Sepharose)
Protocol: as §1
(§2) Rho Kinase Inhibitory Action (Inhibition of p160ROCK and ROCKII)
(§3) COS cells were seeded in a 3.5 cm dish and incubated overnight. […] After incubation for 20 hours, the cells were washed once with ice-cooled PBS, and the cells were lysed on ice for 20 minutes using a lysis buffer (20 mM Tris-HCl (pH=7.5), 1 mM EDTA, 1 mM EGTA, 5 mM MgCl2, 25 mM NaF, 10 mM β glycerophosphate, 5 mM sodium pyrophorphate, 0.2 mM phenylmethylsulfonyl fluoride, 2 mM dithiothreitol, 0.2 mM sodium vanadate, 0.05% Triton X-100, 0.1 μM calyculin A). The lysate was centrifuged at 10,000×g for 10 minutes and the supernatant was recovered. […] Then, protein G-Sepharose was added and the mixture was shaken for 2 more hours. […]

[5] = biological target: T3, ROCKII (Mus musculus, UniProt P70336); assay: Inhibition of ROCKII (myc-tagged, expressed in COS cells); type: biochemical; details: enzyme expressed in COS cells; read-out: IC50 (μM) ROCK-II
T3 construct: made in house; host or cells: COS cells (transient transfection, immunoprecipitated with 9E10 anti-myc antibody on protein G-Sepharose)
Protocol: as §1, §2, §3

[6] = system: Human SK-Mel-28 melanoma; assay: Inhibition of cell growth of SK-Mel-28 melanoma; type: cell-based; details: 72 hours, MTT
Protocol: Inhibition of Cell Growth of SK-Mel-28 Melanoma
Human SK-Mel-28 melanoma (10^4 cells) and the test compound were suspended in RPMI1640 medium containing 100 μl of 10% FBS and incubated in a 96 well plate at 37° C. under 5% CO2 gas for 72 hours. After the incubation, 10 μl of MTT (5 mg/ml) was added to each well and the cells were incubated at 37° C. under 5% CO2 gas for 4 hours. Then, 10% sodium dodecyl sulfate and 0.01 N hydrochloric acid solution were each added by 10 μl to respective wells. After the plate was stood overnight, absorbance at 570 nm was measured using a microplate reader and the inhibition percentage (% cytotoxicity) was calculated by the following formula.
The cytotoxicity against human cultured tumor cells was confirmed by pigment method (Carmichael et al., Cancer Res., 47, 936-942, 1987: Mosman, J. Immunol. Methods, 65, 55-63, 1983) using 3-(4,5-dimethylthiazol-2-yl)-2,5-diphenyltetrazolium bromide (MTT).
The test compound was dissolved in dimethyl sulfoxide and diluted with RPMI 1640 medium before use. The final dimethyl sulfoxide concentration was adjusted to not more than 0.25%.

[7] = system: ddY mice; assay: Acute toxicity in ddY mice; type: in vivo; details: intraperitoneal administration at 30 mg/kg, monitored for 5 days
Source text: The compound 109.2HCl and compound 143.2HCl.H2O were respectively administered intraperitoneally to ddY mice and the mice were monitored for 5 days.

[8] = system: trachea specimen contracted with acetylcholine; assay: Effect on contraction by acetylcholine of trachea specimen removed from guinea pig; details: Cavia porcellus, acetylcholine 10^−6 M contraction, 50% relaxation vs papaverine 10^−4 M maximum, read-out: Trachea relaxing action
Protocol: Male Hartley guinea pigs (body weight 260-390 g) were anesthetized by the peritoneal administration of pentobarbital sodium (100 mg/kg) and exsanguinated, whereafter trachea was removed. The anterior cartilage of the trachea was opened and the band was cut in a 3 mm width strip to give a specimen. The specimen was hung in a Magnus bath (40 ml) filled with Krebs-Henseleit solution (NaCl 117 mM; KCl 4.7 mM; CaCl2 2.5 mM; MgSO4 1.2 mM; NaHCO3 24.8 mM; KH2PO4 1.2 mM; glucose 11.0 mM) at a load of 1 g. The Magnus bath was constantly bubbled with a mixed gas (95% O2+5% CO2 gas). The tension of the strip was measured with an isomeric transducer (TB-611T, Nippon Koden) and depicted on a recorder (Ti-102, Tokai Irika).

T1 sequence (Q13464 whole entry): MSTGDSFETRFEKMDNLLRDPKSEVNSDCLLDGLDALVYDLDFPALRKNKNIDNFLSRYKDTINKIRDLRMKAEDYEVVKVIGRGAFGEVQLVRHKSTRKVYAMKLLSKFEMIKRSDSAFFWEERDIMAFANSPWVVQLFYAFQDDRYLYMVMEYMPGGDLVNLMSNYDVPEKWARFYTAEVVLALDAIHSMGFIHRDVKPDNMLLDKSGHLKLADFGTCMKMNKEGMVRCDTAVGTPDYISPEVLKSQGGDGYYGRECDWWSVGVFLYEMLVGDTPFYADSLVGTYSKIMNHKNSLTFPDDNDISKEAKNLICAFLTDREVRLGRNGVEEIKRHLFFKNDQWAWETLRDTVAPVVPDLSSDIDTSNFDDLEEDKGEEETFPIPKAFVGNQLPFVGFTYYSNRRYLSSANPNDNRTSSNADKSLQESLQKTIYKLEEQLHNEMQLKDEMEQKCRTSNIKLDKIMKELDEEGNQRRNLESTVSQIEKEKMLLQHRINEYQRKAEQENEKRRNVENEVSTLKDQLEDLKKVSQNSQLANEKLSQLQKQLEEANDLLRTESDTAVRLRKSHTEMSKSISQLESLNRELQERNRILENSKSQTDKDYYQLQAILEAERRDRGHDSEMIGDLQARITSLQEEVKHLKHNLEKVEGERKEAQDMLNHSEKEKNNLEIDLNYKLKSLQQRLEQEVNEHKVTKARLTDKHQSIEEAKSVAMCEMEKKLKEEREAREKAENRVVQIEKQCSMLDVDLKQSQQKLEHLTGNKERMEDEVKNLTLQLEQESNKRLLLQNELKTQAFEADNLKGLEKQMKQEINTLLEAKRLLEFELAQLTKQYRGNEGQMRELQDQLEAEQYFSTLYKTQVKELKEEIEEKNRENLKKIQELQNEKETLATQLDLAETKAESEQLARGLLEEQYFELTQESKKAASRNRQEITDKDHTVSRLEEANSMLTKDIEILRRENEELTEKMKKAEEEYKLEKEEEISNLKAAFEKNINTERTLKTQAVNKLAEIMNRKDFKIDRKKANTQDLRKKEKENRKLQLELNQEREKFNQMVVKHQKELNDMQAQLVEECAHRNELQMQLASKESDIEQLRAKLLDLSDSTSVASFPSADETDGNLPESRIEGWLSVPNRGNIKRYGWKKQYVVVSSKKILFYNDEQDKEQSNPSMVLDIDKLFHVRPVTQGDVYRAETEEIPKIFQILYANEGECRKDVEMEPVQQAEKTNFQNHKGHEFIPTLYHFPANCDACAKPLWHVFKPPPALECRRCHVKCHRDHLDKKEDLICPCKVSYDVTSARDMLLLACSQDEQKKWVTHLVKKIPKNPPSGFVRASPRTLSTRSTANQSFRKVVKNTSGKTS
T2 sequence (Q13464 whole entry): as above
T3 sequence (P70336 whole entry): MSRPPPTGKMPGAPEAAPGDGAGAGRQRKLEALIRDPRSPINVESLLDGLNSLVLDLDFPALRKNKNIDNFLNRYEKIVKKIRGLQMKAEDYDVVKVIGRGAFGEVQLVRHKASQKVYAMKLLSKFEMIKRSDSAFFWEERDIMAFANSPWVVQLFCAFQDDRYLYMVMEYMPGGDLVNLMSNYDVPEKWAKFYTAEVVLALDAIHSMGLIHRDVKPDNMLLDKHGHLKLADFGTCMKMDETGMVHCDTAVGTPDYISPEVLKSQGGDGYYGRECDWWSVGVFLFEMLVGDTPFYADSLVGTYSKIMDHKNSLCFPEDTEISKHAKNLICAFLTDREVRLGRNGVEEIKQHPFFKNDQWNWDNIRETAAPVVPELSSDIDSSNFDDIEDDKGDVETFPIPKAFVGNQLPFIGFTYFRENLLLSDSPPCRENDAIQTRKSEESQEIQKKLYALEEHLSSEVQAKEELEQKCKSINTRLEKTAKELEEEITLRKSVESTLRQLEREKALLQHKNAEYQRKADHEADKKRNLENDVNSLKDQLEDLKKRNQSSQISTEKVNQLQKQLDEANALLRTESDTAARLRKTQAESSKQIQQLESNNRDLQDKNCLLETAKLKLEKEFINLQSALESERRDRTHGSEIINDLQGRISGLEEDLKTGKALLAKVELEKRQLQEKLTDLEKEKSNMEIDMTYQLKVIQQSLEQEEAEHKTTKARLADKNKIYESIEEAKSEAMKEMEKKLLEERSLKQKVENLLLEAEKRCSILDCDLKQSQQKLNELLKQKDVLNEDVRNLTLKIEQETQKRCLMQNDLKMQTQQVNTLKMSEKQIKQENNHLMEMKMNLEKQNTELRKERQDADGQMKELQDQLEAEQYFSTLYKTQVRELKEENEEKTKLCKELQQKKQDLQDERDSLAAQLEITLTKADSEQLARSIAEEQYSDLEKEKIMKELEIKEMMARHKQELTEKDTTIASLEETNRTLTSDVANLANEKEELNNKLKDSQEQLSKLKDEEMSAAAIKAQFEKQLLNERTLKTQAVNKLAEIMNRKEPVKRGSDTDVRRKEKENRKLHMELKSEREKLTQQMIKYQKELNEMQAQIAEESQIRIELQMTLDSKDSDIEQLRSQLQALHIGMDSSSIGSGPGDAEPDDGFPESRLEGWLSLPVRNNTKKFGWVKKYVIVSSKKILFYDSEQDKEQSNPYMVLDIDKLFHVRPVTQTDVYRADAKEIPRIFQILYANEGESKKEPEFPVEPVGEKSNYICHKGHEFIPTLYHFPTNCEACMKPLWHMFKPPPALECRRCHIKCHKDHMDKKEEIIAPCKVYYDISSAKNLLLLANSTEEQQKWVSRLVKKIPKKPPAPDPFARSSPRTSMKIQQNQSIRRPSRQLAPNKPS

Row | Compound | inhibition at 100 µM [1] | Increase in skin blood flow ± standard error (%) [2] | IC50 [3] | IC50 [4] | IC50 [5] | IC50 [6] | Acute toxicity (death) [7] | IC50 [8]
1 | CC(N)[C@H]1CC[C@H](C(=O)Nc2ccncc2)CC1 (single isomer, unassigned; (+)) [Compound 80.2HCl.H2O, (+)-trans-4-(1-aminoethyl)-1-(4-pyridylcarbamoyl)cyclohexane] | 70% | 135.0 ± 13.4% | – | – | – | – | – | –
2 | CC(N)[C@H]1CC[C@H](C(=O)Nc2ccnc3[nH]ccc23)CC1 (single isomer, unassigned; (+)) [Compound 109.2HCl, (+)-trans-N-(1H-pyrrolo[2,3-b]pyridin-4-yl)-4-(1-aminoethyl)cyclohexanecarboxamide] | 67% | – | 110 nM | 0.095 µM | 0.048 µM | 58000 nM | did not cause death | 43 nM
